For test [1], the system named is TDP-43^Q331K mouse model. Put plainly: Example 4 catwalk gait analysis. It is filed as in vivo. The note with it: TDP-43^Q331K mice. How it is done: (§1) Following genotyping, transgenic females were block randomized into three different dosing groups: vehicle once daily, 2.5 mg/kg (6aS)-6-methyl-5,6,6a,7-tetrahydro-4H-dibenzo[de,g]quinoline-10,11-diol twice daily and 5 mg/kg (6aS)-6-methyl-5,6,6a,7-tetrahydro-4H-dibenzo[de,g]quinoline-10,11-diol once daily. The doses were selected based on results of previous internal studies. Animals were weighed daily before dosing and dosed subcutaneously at 10 ml/kg with a solution of 0.5 mg/ml (6aS)-6-methyl-5,6,6a,7-tetrahydro-4H-dibenzo[de,g]quinoline-10,11-diol for the 5 mg/kg dose and 0.25 mg/ml for the 2.5 mg/kg dose. Where animals were dosed twice a day, the doses were at least 6 hours apart and the dosing solution was freshly made for the second dose of the day.
The study was designed with two main cohorts of mice. One cohort was dosed from 25 days of age until 6 months of age and mice had behavioral testing throughout the study and consisted of 14 mice per group. The other satellite cohort was dosed from 25 days of age until 3 months of age, with no behavioral testing and consisted of 6 mice per group for target engagement and histological assessment. Behavioral tests that were carried out during the experiment were: accelerated rotarod test, gait analysis, and electrophysiology.
Gait analysis was carried out at 3 months and 6 months of age using the catwalk gait analysis system 7.1 (Noldus Information Technology B.V., Netherlands) and analyzed using Catwalk software 7.1. The software calculated many different gait parameters such as stride length, base of support (BOS) and swing time as well as step patterns and percentage of time spent on 2, 3 or 4 paws.
On the day of the test mice were placed on the glass runway and allowed to run freely back and forth. About 6 straight, consistent runs were recorded by the camera for each mouse. The 3 best runs with the closest total run time were selected for each mouse for analysis. For these three runs, the paw prints were labelled in successive frames using the software, which then analyzed multiple gait parameters for each of the runs. Using Excel, the average of all three runs per mouse was calculated, followed by the average per group for each of the gait parameters.
Gait analysis was performed using the catwalk system (Noldus) at both 3 and 6 months of age in 8 mice per group per timepoint. Traditionally in this model, the base of support increases with age, as shown in FIG. 9-13, represented the waddling or ‘swimming’ gait described in this strain.

Another test deals with NRF2. Nature of the test: Example 2 in vivo pharmacodynamic study via subcutaneous dosing, cortex: expression of genes upregulated by NRF2 activation. The note with it: wildtype mouse cortex, 5 mg/kg s.c. once daily 7 days, compared to Gapdh. As for the experimental part: Wildtype mice (3 per group) were dosed subcutaneously at 0, 0.5, 1.5, 5 and 10 mg/kg (6aS)-6-methyl-5,6,6a,7-tetrahydro-4H-dibenzo[de,g]quinoline-10,11-diol hydrochloride for 7 days once daily. One animal in the 10 mg/kg dosing group was actually dosed 15 mg/kg on Day 1. To prepare the dosing solutions, (6aS)-6-methyl-5,6,6a,7-tetrahydro-4H-dibenzo[de,g]quinoline-10,11-diol was pre-weighed into bijous and stored in foil.

Test [2] has as its system TDP-43^Q331K mouse model. Put plainly: Example 4 accelerating rotarod test. As to conditions: TDP-43^Q331K mice, 5 mg/kg once daily s.c., one time point (19 weeks of age). It is filed as in vivo. How it is done:
as §1
The study was designed with two main cohorts of mice. One cohort was dosed from 25 days of age until 6 months of age and mice had behavioral testing throughout the study and consisted of 14 mice per group. […]
Mice were tested on the accelerating rotarod (Jones & Roberts for mice, model 7650) once a week from 40 days of age until the end of the study. […] Mice are placed on the rotarod and the time taken to fall from the rotarod (latency to fall) is recorded. For each day of testing, each mouse was tested twice on the rotarod with a small rest in between trials and the best result from the two trials is recorded. […]

Experimental findings from patent US20220265635A1, “TREATMENT OF NEUROLOGICAL DISEASE” (Aclipse One Inc., priority 2018, published 2022) are described below.

`CN1CCc2cccc3c2[C@@H]1Cc1ccc(O)c(O)c1-3` [(6aS)-6-methyl-5,6,6a,7-tetrahydro-4H-dibenzo[de,g]quinoline-10,11-diol]: the “gait parameters (time spent on diagonal paws, on three or four paws) from 3 to 6 months” value in the test on TDP-43^Q331K mouse model [1] (2.5 mg/kg dosing group) is “relatively stable”. The “change in percentage of time spent on 3 paws between 3 months and 6 months of age, compared to vehicle” value with TDP-43^Q331K mouse model [1] (2.5 mg/kg twice daily) is on record as “significant decrease”. Besides, in the test with TDP-43^Q331K mouse model [1] (2.5 mg/kg twice daily, significant difference to vehicle, which has a decrease), the “change in percentage of time spent on diagonal paws between 3 months and 6 months of age” value is “slight increase”. Also, in the test with TDP-43^Q331K mouse model [1] (5 mg/kg dosing group), the “gait parameters (time spent on diagonal paws, on three or four paws) from 3 to 6 months” value is “relatively stable”. Further, the “effect on swimming gait (base of support increasing with age)” value with TDP-43^Q331K mouse model [1] (3 and 6 months of age) is on record as “did not limit this swimming gait”. In the test on NRF2 (6 hours post final dose), this compound displayed a Gclm gene induction of 1.51 fold, a Hmox1 gene induction of 2.02 fold, a Nqo1 gene induction of 1.04 fold and a Nrf1 gene induction of 2.39 fold. This compound also yielded a Pgc1a gene induction in the test with NRF2 (6 hours post final dose) of 1.71 fold. Also, in the test on NRF2 (24 hours post final dose), the Gclm gene induction is listed as 1.45 fold, the Hmox1 gene induction was 2.11 fold, the Nqo1 gene induction is 1.32 fold and the Nrf1 gene induction is on record as 1.58 fold. The Pgc1a gene induction with NRF2 (24 hours post final dose) is listed as 1.70 fold. Besides, the “rotarod performance (latency to fall) compared to vehicle dosed animals” value in the test with TDP-43^Q331K mouse model [2] is listed as “significant increase”.
